Results as given in patent US10413612B2, “Method of treating cancer with a biomaterial and a toll-like receptor agonist” (Dana-Farber Cancer Institute, Inc., priority 2016, dated 2019).

What was measured:
[1] = tested on: 4T1-Luc2 syngeneic breast cancer cells; conditions: hydrogel with IL-15sa and anti-PD-1 (devices 1, 14-16)
Experimental: Seven-week-old female Balb/c mice were inoculated orthotopically with 100,000 4T1-Luc2 syngeneic breast cancer cells (into the fourth mammary fat pad). After 10 days, the mice were anesthetized, tumors were surgically resected, and compositions were placed in the resection site. […] The order of surgeries avoided systematic error by dividing up the groups. Standard follow-up care (wound clips, analgesic) was provided.
For the metastatic breast cancer model, 10^5 4T1-Luc2 or 4T1 cells (in 30 μl DPBS) were inoculated orthotopically into the fourth mammary pad of mice to generate a local tumor mass. Cells were injected without any incision to expose the fat pad. Mice were randomly assigned to treatment groups, and surgery was performed 10 days after tumor inoculation. For the metastatic melanoma and lung cancer models, 10^6B16-BL6 or 5×10^5 LLC cells (in 100 μl DPBS) were inoculated subcutaneously in mice to generate a local tumor mass. Mice were randomly assigned to treatment groups, and surgery was performed when tumor volumes reached ˜600 mm^3. While mice were kept under anesthesia at 2% isoflurane, the tumor was resected, and the hydrogel was placed in the site of the resultant cavity at the time of surgery. The wound was closed with medical clips. Control experiments were performed in which therapy was administered in solution at the site of surgery, intraperitoneally, or intravenously. For tumor re-challenge experiments, 10^4 4T1-Luc2 cells were inoculated in the contralateral fourth mammary fat pad. The surgeries were performed independently at least three times, and the surgeon was often blinded.
After surgery, mice were inspected weekly for tumor recurrence and distal metastasis by bioluminescence imaging (BLI). To this end, 10 min after intraperitoneal injection of D-luciferin (150 mg/kg), a substrate of Luc2, the mice were anesthetized with 2% isoflurane and imaged using an IVIS Spectrum In Vivo Imaging System (Perkin Elmer).
A series of compositions described above in Table 2 were evaluated in viva. In each group of evaluations, seven-week-old female Balb/c mice were inoculated orthotopically with 100,000 4T1-Luc2 syngeneic breast cancer cells (into the fourth mammary fat pad). After 10 days, mice were anesthetized, tumors were surgically resected, and the composition was placed in the resection site. Tumor relapse and metastasis were monitored via imaging over the course of 6 weeks.
Female BALB/cJ mice were inoculated orthotopically with 4T1-Luc2 breast cancer cells in their fourth mammary fat pad. Nine days later, the mice were imaged by bioluminescent IVIS imaging to confirm that the size of the tumors was consistent across animals to enable randomization into groups. On day 10 post-tumor inoculation, tumors (˜100 mm^3) were resected, and device 1 was placed in the tumor resection site. Controls included no treatment (sham), empty hydrogel (device 8/hydrogel 4), or delivery of the triple combination in solution (S+I+P)—via intraperitoneal injection, intravenous injection, or local administration.

[2] = In vitro release study of payloads from hydrogel; type: physicochemical; conditions: sink conditions, PBS or media
Experimental: To determine the release kinetics of each payload from the hydrogel, a hydrogel loaded with fluorescently tagged anti-PD-1, fluorescently tagged IL-15sa, lenalidomide, celecoxib, fluorescently tagged 2′3′-cGAMP, or R848 was immersed in 3 mL pH 7.4 phosphate buffered saline (PBS). At each time point, 1 mL of media was taken out and the same amount of fresh buffer was added back. The amount of payload that had been released was then measured using a fluorescence plate reader or via HPLC.
Hydrogels were prepared according to the general procedure in Example 1. They contained either one or all of the payloads indicated. Fluorescent dyes were conjugated to the proteins to facilitate the measurement of protein release kinetics. The hydrogels were immersed in 3 mL of buffer (either PBS only, PBS with Tween80 (0.2% v/v), or RPMI with 10% FBS) and incubated at 37° C. with stirring.
At the indicated sampling time points, 1 mL of buffer was recovered for measurement and was replaced by an equivalent volume of fresh buffer. The aliquots were measured using a fluorescence plate reader to determine protein concentration. Aliquots were also assessed by HPLC to determine small molecule concentration.

[3] = In vivo release study (fluorescence IVIS imaging); parameters: species or system non-tumor-bearing mice; conditions: each time point: first 24 hours (2′3′-cGAMP), first week (IL-15sa)
Excerpt: To evaluate the in vivo release profiles of Cy7 carboxylic acid (a model compound for R848), anti-PD-1, IL-15sa, and 2′3′-cGAMP, hydrogels containing the fluorophore or one of the fluorescently labeled payloads were surgically implanted into non-tumor-bearing mice.
The loading and release properties of the hydrogel were examined in additional experiments. […] It was then confirmed that the hydrogel extends the release of the small molecules and biologics in vivo. Cy7 carboxylic acid (Cy7-CA) was used as a model small molecule payload, as its physical properties are very similar to those of resiquimod (R848). Cy7-CA was administered to non-tumor-bearing mice, either in solution or loaded in a scaffold placed by the fourth mammary fat pad. The mice were assessed by fluorescence IVIS imaging (FIG. 37B), and the data were quantified (FIG. 37C). Whereas a loss of ˜60% of the signal was detected within two hours of administration of the fluorophore in solution, this amount of signal decay required 24 hours for the fluorophore loaded in the hydrogel. Over this time course, there was a […] for the latter group, on average.
To confirm that the hydrogel sustains the release of the small molecule and biologics in vivo, fluorescently labeled versions of 2 ? […]

## 2′3′-cGAMP
[1]
  survival benefit as innate immune activator component: conferred greater survival benefit than the Toll-like receptor (TLR) 7/8 agonist R848
[2]
  in vitro release kinetics (time scale): hours for the small molecule
[3]
  percentage remaining locally, hydrogel relative to free compound: nearly twice
